Our source for the mutagenic call values is PubChem BioAssay AID1259407 (Chemical Carcinogenesis Research Information System (CCRIS), 2018).

The source made the active and inactive calls. How the calls were made is not given here.

The test system of the series is CCRIS mutagenicity, Ames/micronucleus/aberration tests. The experiment in a line: CCRIS mutagenicity studies. To be noted: Test System: AMES SALMONELLA TYPHIMURIUM

As for `O=[N+]([O-])c1cccc(Br)c1`, the mutagenic call reads like this: (Strain/Indicator: TA98, Metabolic Activation: NONE, Method: PREINCUBATION) “inactive; negative”; (Strain/Indicator: TA98, Metabolic Activation: RAT, LIVER, S-9, KANECHLOR 500, Method: PREINCUBATION) “inactive; negative”; (Strain/Indicator: TA100, Metabolic Activation: RAT, LIVER, S-9, KANECHLOR 500, Method: PREINCUBATION) “active; positive”.

With `O=[N+]([O-])c1ccc2c(c1)Oc1cc(Cl)c(Cl)cc1O2`, the mutagenic call by setting is: (Strain/Indicator: TA98, Metabolic Activation: NONE, Method: STANDARD PLATE) “active; positive”; (Strain/Indicator: TA98, Metabolic Activation: RAT, LIVER, S-9, AROCLOR, Method: STANDARD PLATE) “active; positive”; (Strain/Indicator: TA100, Metabolic Activation: NONE, Method: STANDARD PLATE) “active; positive”; (Strain/Indicator: TA100, Metabolic Activation: RAT, LIVER, S-9, AROCLOR, Method: STANDARD PLATE) “active; positive”.
